From US10676440B2, “Crystalline forms of an NK-1 antagonist” (Helsinn Healthcare SA, priority 2014, dated 2020)
“And” between values parts separate entries of the source, which are not always exact repeats. Identical values can stand only once.

Experiments:
in vivo [1] = test: in vivo
Method: In Example 11, the pharmacokinetics of the compound of Formula I was evaluated following single intravenous, intraperitoneal, and oral administration to rats to compare the oral bioavailability of two different formulations and to measure the brain penetration after intravenous administration.
A solution of the compound of Formula I (4.7 mg/mL) in water and a suspension of the compound of Formula I (5 mg/mL) in SSV (standard suspension vehicle) were prepared.
The experiments were performed in 20 male rats (Strain RoRo Fuellinsdorf, body weight 230-290 g) from Biological Research Laboratories, Fuellinsdorf, Switzerland. The animals were housed under standard laboratory conditions throughout the study period. After an acclimatization period of 3 days, the rats were implanted with chronic jugular catheters under pentobarbital anesthesia. After surgery the rats were on recovery for 2 days before dosing. They had free access to water and food during the experiment.
For the pharmacokinetic studies, 0.4 mL blood samples were collected at different time points, up to 72 hours post-dose, from the jugular vein of the rats via catheter. For the study of brain and CSF penetration, 2 mL blood samples as well as CSF and brain were collected between 0.3 and 2 hours post-dose from one rat at each time point. Collection tubes contained EDTA/NAF as anticoagulant and stabilizer, respectively. After centrifugation, plasma was removed. Plasma, CSF and brain samples were stored deep-frozen at approximately −20° C. until analysis using a specific LC-MS method.
Aliquots of plasma samples of 40 μL were mixed with 50 μL buffer pH 9, 50 μL of a Formula I internal standard (1 μg/mL 1-chlorobutane) and 250 μL butylacetate and then shaken for 10 min. After centrifugation, 200 μL of the supernatant were evaporated to dryness at 45° C. under a stream of nitrogen. The residue was reconstituted with 200 μL acetonitrile/1% formic acid in water (30/70, v/v). An aliquot of 30 μL was injected onto an analytical column (Waters, Symmetry C8, 2.1×150 mm, 5 μm).
The sample passed to the ion-spray interface of the single quadrupole mass spectrometer. Selected ion monitoring mode (SIM) was used for mass spectrometric detection. Quantification was based on peak area ratios and calibration curve established by weighted (1/x^2) linear regression. The calibration curve was established between 5 and 5000 ng/mL using dog plasma as matrix. Data acquisition and integration of SIM chromatograms were performed using MacQuan (version 1.6) from Perkin-Elmer Sciex.
The pharmacokinetic parameters were estimated by non-compartmental analysis, using the pharmacokinetic evaluation program WinNOnlin [1]. AUC(0-inf) was calculated applying the linear trapezoidal rule and extrapolation to infinity using the apparent elimination rate constant λz and the calculated concentration at the last measurable time point. AUClast values were calculated by linear trapezoidal rule from time zero to time of last measureable time point. Cmax, C(t), and Tmax were determined directly from the plasma concentration-time profiles. The apparent terminal half-life (T1/2) was derived from the equation: T1/2=ln2/λz. Means of the half-life were calculated by harmonic means. Plasma clearance, CL, was calculated as D/AUC(0-inf.). Volume of distribution, Vz, was calculated as CL/λz. The absolute bioavailability was calculated from plasma concentration data as follows: […]
A solution of Formula I (hydrochloride salt) was administered intravenously at a dose of 9.4 mg/kg to 2 male rats in two subsequent experiments. In both studies, blood samples were obtained at 0.083, 0.25, 0.5, 1, 2, 4, 6, 8, and 24 h after intravenous application and in addition at 48 and 72 h in the study.

in vivo [2] = details: for AUC(0-t): AUC (0-100 h)
Method: In Example 10, the pharmacokinetics of the compound of Formula I in dogs following single intravenous and oral administration was evaluated and the oral bioavailability of five different salts of the compound of Formula I was compared. The compound of Formula I was administered to dogs as described in Table 12. The doses are expressed in mg of free base.
The experiments were performed in 15 male dogs (bodyweight 11-18 kg) from RCC Ltd., Biotechnology and Animal Breeding Division, Wolferstrasse 4, CH-4414, Fullinsdorf, Switzerland. The animals were housed under standard laboratory conditions throughout the study period.
For the pharmacokinetic studies, 1 mL blood samples were collected from the cephalic vein of the dogs via catheter at 15, 30 min and at 1, 2, 3, 4, 6, 8, 24, 32, 48, 56, 72, 80, 96, and 100 (or 104) hours following oral dosing. After intravenous administration, blood samples were collected at 5, 15, 30 min and 1, 2, 3, 4, 6, 8, 24, 32, 48, 56, 75, 102, 120, 128, 144, 152, 168, 176, 192, and 200 hours. Collection tubes contained EDTA/NaF as anticoagulant and stabilizer. After centrifugation, plasma was removed and stored deep frozen at approximately −20° C. until analysis using a specific LC-MS method.
Aliquots of 40 μL plasma were mixed with 50 μL buffer at pH 5, 50 μL internal standard of Formula I (1 μg/mL in 1-chlorobutane) and 250 μL butylacetate and then shaken for 10 min. After centrifugation, 200 μL of the supernatant were evaporated to dryness at 45° C. under a stream of nitrogen. The residue was reconstituted with 200 μL acetonitrile/1% formic acid in water (30/70, v/v). Aliquots of 30 μL were injected onto the analytical column (Waters, Symmetry C8, 2.1×150 mm, 5 μm).
Separation occurred by gradient elution using a solvent A (acetonitrile) and solvent B (1% formic acid in water). The flow rate was 0.3 mL/min and the gradient elution was: […]
The sample passed to the ion-spray interface of the single quadrupole mass spectrometer. Selected ion monitoring mode (SIM) was used for mass spectrometric detection. Quantification was based on peak area ratios and calibration curve established between 2 and 5000 ng/mL.
To a 100 μL sample aliquot were added 200 μL of a mixture of acetonitrile/ethanol containing the deuterated internal standard, to precipitate plasma proteins. After vortex mixing and centrifugation, aliquots of the supernatants were transferred to 96-deel-well plates and injected for analysis (5 μL). Following enrichment and cleanup on the trapping column, the analyte was eluted and separated by gradient elution on a 2.1*30 mm analytical column (XTerra MS C18). The effluent from the analytical column was passed to the turbo ion spray vie a divert valve.
Calibration standards were prepared in dog plasma. The calibration range was from 10-5000 ng/mL. In each analytical series, a set of calibration standards was worked up and run with the unknowns. Calibration was then performed by computing a weighted (1/X^2) least-squares linear regression line of the measured peak area ratios (Y) (analyte to internal standard) versus the spiked concentrations (X). The drug concentrations of the unknown samples were then calculated from this regression line (UNICHROM). The performance of the analytical procedure during sample analysis was monitored. With each analytical series, quality control (QC) samples in dog plasma, spiked with known amounts of the analyte, were run together with the study samples.
The pharmacokinetic parameters were estimated by non-compartmental analysis, using the pharmacokinetic evaluation program WinNOnlin [1]. AUC(0-inf.) was calculated applying the linear trapezoidal rule and extrapolation to infinity using the apparent elimination rate constant kz and the calculated concentration at the last measurable time point. AUClast values were calculated by linear trapezoidal rule from time zero to time of last measureable time point.

[3] = Moisture adsorption/desorption (DVS), hygroscopicity; type: physicochemical
Method: Moisture Adsorption/Desorption data was collected on a DVS-1 (SMS Surface Measurements Systems) moisture balance system. The sorption/desorption isotherms were measured stepwise in a range of 0% RH to 90% RH at 25° C. A weight change of <0.002 mg/min was chosen as the criterion to switch to the next level of relative humidity (with a maximum equilibration time of 6 hours if the weight criterion was not met). The data were corrected for the initial moisture content of the samples so that the weight after drying the sample at 0% relative humidity was taken as the zero point. The hygroscopicity of a given substance was characterized, in accordance with the European Phamacopoeia (Technical Guide 1999), by the increase in mass when the relative humidity is raised from 0% RH to 90% RH, as defined below (where weight increase=x):
Slightly hygroscopic: 0.2%≤x<2.0%
Very hygroscopic: x≥15.0%
Deliquescent: Sufficient liquid as adsorbed to form a liquid

[4] = male, RoRo Fuellinsdorf, rat, in vivo, po, 10 mg/kg
[5] = rats NJ97, NJ98, head prints (water, p.o), title: single oral in SSV, listed as Formula I (HCl salt)
[6] = rats NJ99, NJ100, head prints (water, i.p.), title: single oral in water, 9.3 mg/kg free base, listed as Formula I (HCl salt), 9.3 mg/kg
[7] = rats NJ101, NJ102, water, i.v., 9.3 mg/kg free base, listed as Formula I (HCl salt), 9.3 mg/kg
[8] = dogs, single oral, capsule, 120 mg/dog as free base, Protocol A, individual dogs
[9] = dogs, single oral, capsule, 120 mg/dog as free base, Protocol A, individual dogs, listed as hydrochloride salt

Cc1ccccc1-c1cc(N2CCN(C)CC2)ncc1N(C)C(=O)C(C)(C)c1cc(C(F)(F)F)cc(C(F)(F)F)c1 [Free Base, 2-(3,5-bis(trifluoromethyl)phenyl)-N,2-dimethyl-N-(6-(4-methylpiperazin-1-yl)-4-(o-tolyl)pyridin-3-yl)propanamide]
Cmax (in vivo [1]; [4]): 796 ng/mL
Tmax (in vivo [1]; [4]): 4 h
Cmax (in vivo [1]; male, RoRo Fuellinsdorf, rat, in vivo, po, 10 mg/kg, Cmax): 616 ng/mL
Tmax (in vivo [1]; male, RoRo Fuellinsdorf, rat, in vivo, po, 10 mg/kg, Tmax): 2.2 h
AUC (0-100 h) (in vivo [2]; male, dog, in vivo, po, 70 mg): 12800 ng·h/mL
AUC (0-Inf.) (in vivo [2]; male, dog, in vivo, po, 70 mg): 14500 ng·h/mL
Cmax (in vivo [2]; male, dog, in vivo, po, 70 mg): 667 ng/mL
T1/2 (in vivo [2]; male, dog, in vivo, po, 70 mg): 35.7 h
AUC(0-t) (in vivo [2]; male, dog, in vivo, po, 70 mg): 16200 ng·h/mL
AUC(0-inf) (in vivo [2]; male, dog, in vivo, po, 70 mg): 19300 ng·h/mL
Cmax (in vivo [2]; male, dog, in vivo, po, 70 mg, Cmax): 587 ng/mL
bioavailability (in vivo [2]; male, dog, in vivo, po, 70 mg, F (oral bioavailability)): 64%
half-life (in vivo [2]; male, dog, in vivo, po, 70 mg, T1/2): 40.4 h
Tmax (in vivo [2]; male, dog, in vivo, po, 70 mg, Tmax): 4 to 6 h
AUC (0-100 h) (in vivo [2]; male, dog, in vivo, po, 120 mg): 17400 ng·h/mL
AUC (0-Inf.) (in vivo [2]; male, dog, in vivo, po, 120 mg): 22600 ng·h/mL
Cmax (in vivo [2]; male, dog, in vivo, po, 120 mg): 757 ng/mL
T1/2 (in vivo [2]; male, dog, in vivo, po, 120 mg): 56.3 h
AUC(0-t) (in vivo [2]; male, dog, in vivo, po, 120 mg): 11000 ng·h/mL
AUC(0-inf) (in vivo [2]; male, dog, in vivo, po, 120 mg): 12700 ng·h/mL
Cmax (in vivo [2]; male, dog, in vivo, po, 120 mg, Cmax): 614 ng/mL
half-life (in vivo [2]; male, dog, in vivo, po, 120 mg, T1/2): 39.5 h
Tmax (in vivo [2]; male, dog, in vivo, po, 120 mg, Tmax): 2 h
half-life (in vivo [2]; male, dog, in vivo, po, apparent terminal half-lives): 36 to 56 h
bioavailability (in vivo [2]; male, dog, in vivo, po, oral (systemic) bioavailability): 34 to 83%

Cc1ccccc1-c1cc(N2CCN(C)CC2)ncc1N(C)C(=O)C(C)(C)c1cc(C(F)(F)F)cc(C(F)(F)F)c1.Cl [Hydrochloride]
F (in vivo [1]; rats NJ97, NJ98, head prints (water, p.o), title: single oral in SSV, calculated with AUC 0-48 h, listed as Formula I (HCl salt)): 42.4% and 53.7%
AUC (0-48 h) (in vivo [1]; [5]): 12000 ng·h/mL and 15200 ng·h/mL
AUC (0-Inf. h) (in vivo [1]; [5]): 12800 ng·h/mL and 15800 ng·h/mL
Cmax (in vivo [1]; [5]): 616 ng/mL and 796 ng/mL
T1/2 (in vivo [1]; [5]): 11.6 h and 10.2 h
Tmax (in vivo [1]; [5]): 2.2 h and 4.0 h
AUC (0-48 h) (in vivo [1]; [6]): 26200 ng·h/mL and 20100 ng·h/mL
AUC (0-Inf. h) (in vivo [1]; [6]): 37900 ng·h/mL and 34000 ng·h/mL
Cmax (in vivo [1]; [6]): 933 ng/mL and 1060 ng/mL
F (in vivo [1]; [6]): 98.6% and 75.7%
T1/2 (in vivo [1]; [6]): 26.5 h and 27.1 h
Tmax (in vivo [1]; [6]): 6.3 h and 4.0 h
AUC (0-48 h) (in vivo [1]; [7]): 31700 ng·h/mL and 21400 ng·h/mL
AUC (0-Inf. h), **calculated with AUC (0-72 h) (in vivo [1]; [7]): 49300** ng · h/mL and 32300** ng · h/mL
CL* (calculated with AUC (0-24 h)) (in vivo [1]; [7]): 4.96 mL/min/kg and 7.35 mL/min/kg
T1/2, ***without 72 h concentration (in vivo [1]; [7]): 25.5*** h and 18.2*** h
Vz* (calculated with AUC (0-24 h)) (in vivo [1]; [7]): 11.0 L/kg and 11.5 L/kg
plasma concentrations at 72 h relative to those at 48 h (in vivo [1]; rats, i.v.): 4 times
mean apparent terminal half-life (in vivo [1]; rats, i.v., 9.4 mg/kg, n=4): 19.8 h
increase of plasma levels at 72 h post-dose over 48 h (in vivo [1]; rats, oral solution in water): very small
mean (±SD) apparent terminal half-life (in vivo [1]; rats, oral solution in water, 4 rats): 13.6 h
increase of plasma levels at 72 h post-dose over 48 h (in vivo [1]; rats, oral suspension in SSV): approximately 5 fold
AUC (0-100 h) (in vivo [2]; [8]): 25900 ng·h/mL and 20900 ng·h/mL
AUC (0-Inf.) (in vivo [2]; [8]): 36400 ng·h/mL and 26900 ng·h/mL
F (oral bioavailability) (in vivo [2]; [8]): 91.4% and 66.7%
T1/2 (in vivo [2]; [8]): 48.2 h
Cmax (in vivo [2]; [9]): 1110 ng/mL and 733 ng/mL
F (oral bioavailability) (in vivo [2]; [9]): 91% and 67%
T1/2 (in vivo [2]; [9]): 64 h and 44 h
Tmax (in vivo [2]; [9]): 1 h and 4 h

Cc1ccccc1-c1cc(N2CCN(C)CC2)ncc1N(C)C(=O)C(C)(C)c1cc(C(F)(F)F)cc(C(F)(F)F)c1 [Amorphous Form, 2-(3,5-bis(trifluoromethyl)phenyl)-N,2-dimethyl-N-(6-(4-methylpiperazin-1-yl)-4-(o-tolyl)pyridin-3-yl)propanamide]
crystallization during the sorption isotherm measurement [3]: No crystallization could be observed
Hygroscopicity (weight change 0 to 90%-RH) ([3]; 25° C., 0% RH to 90% RH): 1.5%
Hygroscopicity classification ([3]; 25° C., 0% RH to 90% RH, European Pharmacopoeia classes): slightly hygroscopic
moisture adsorbed ([3]; two cycles): up to 1.5 % w/w
